Measurements published in patent US6660774B2, “Use of (+)-tramadol, O-demethyltramadol or (+)-O-demethyl-tramadol, O-desmethyl-N-mono-desmethyl-tramadol or (+)- O-desmethyl-N-mono-desmethyltramadol” (Gruenethal GmbH, priority 1999, dated 2003).

Legend:
[1] = analgesic effects less pronounced on intravenous than on intracerebroventricular administration; cited from earlier work
[2] = tested on: virgin, female Sprague-Dawley rats (bladder function); assay: Cystometric testing on conscious, virgin rats; assay type: in vivo, rat
[3] = 0.1 mg/kg i.v., Diff.: change relative to the initial value
[4] = 0.1 mg/kg i.v., h: after administration, at maximum action
[5] = 0.1 mg/kg i.v., v: before administration (initial value)
[6] = 0.3 mg/kg i.v., Diff.: change relative to the initial value
[7] = 0.3 mg/kg i.v., h: after administration, at maximum action
[8] = 0.3 mg/kg i.v., v: before administration (initial value)
[9] = 0.5 mg/kg i.v., Diff.: change relative to the initial value
[10] = 0.5 mg/kg i.v., h: after administration, at maximum action
[11] = 0.5 mg/kg i.v., v: before administration (initial value)
[12] = 5.0 mg/kg i.v., Diff.: change relative to the initial value
[13] = 5.0 mg/kg i.v., h: after administration, at maximum action
[14] = 5.0 mg/kg i.v., v: before administration (initial value)
[15] = 10.0 μg/kg i.t., Diff.: change relative to the initial value
[16] = 10.0 μg/kg i.t., h: after administration, at maximum action
[17] = 10.0 μg/kg i.t., v: before administration (initial value)
[18] = 10.0 mg/kg i.v., Diff.: change relative to the initial value
[19] = 10.0 mg/kg i.v., h: after administration, at maximum action
[20] = 10.0 mg/kg i.v., v: before administration (initial value)

Compound: CNCC1CCCCC1(O)c1cccc(O)c1 (stereo not shown) [M5, O-desmethyl-N-mono-desmethyltramadol]
- penetration of the blood-brain barrier (in words) [1]: only a limited extent

Compound: COc1cccc([C@@]2(O)CCCC[C@@H]2CN(C)C)c1 [(+)-Tramadol, (+)-tramadol]
- Basal pressure [2, 3]: Diff.: −4%
- Bladder capacity [2, 3]: Diff.: +18%
- Inter-contraction interval [2, 3]: Diff.: +33%
- Micturition pressure [2, 3]: Diff.: −20%
- Micturition volume [2, 3]: Diff.: +7%
- Residual volume [2, 3]: Diff.: 44%
- Threshold pressure [2, 3]: Diff.: +48%
- Basal pressure [2, 4]: h: 3.85 ± 0.46 cm H2O
- Bladder capacity [2, 4]: h: 1.07 ± 0.13 ml
- Inter-contraction interval [2, 4]: h: 7.13 ± 0.85 min
- Micturition pressure [2, 4]: h: 55 ± 8 cm H2O
- Micturition volume [2, 4]: h: 0.80 ± 0.09 ml
- Residual volume [2, 4]: h: 0.23 ± 0.07 ml
- Threshold pressure [2, 4]: h: 11.63 ± 1.05 cm H2O
- Basal pressure [2, 5]: v: 4.01 ± 0.57 cm H2O
- Bladder capacity [2, 5]: v: 0.91 ± 0.11 ml
- Inter-contraction interval [2, 5]: v: 5.35 ± 0.63 min
- Micturition pressure [2, 5]: v: 69 ± 11 cm H2O
- Micturition volume [2, 5]: v: 0.75 ± 0.12 ml
- Residual volume [2, 5]: v: 0.16 ± 0.01 ml
- Threshold pressure [2, 5]: v: 7.87 ± 1.51 cm H2O
- Basal pressure [2, 6]: Diff.: +10%
- Bladder capacity [2, 6]: Diff.: +39%
- Inter-contraction interval [2, 6]: Diff.: +19%
- Micturition pressure [2, 6]: Diff.: −15%
- Micturition volume [2, 6]: Diff.: +13%
- Residual volume [2, 6]: Diff.: +167%
- Threshold pressure [2, 6]: Diff.: +95%
- Basal pressure [2, 7]: h: 4.95 ± 0.19 cm H2O
- Bladder capacity [2, 7]: h: 1.38 ± 0.14 ml
- Inter-contraction interval [2, 7]: h: 7.21 ± 0.72 min
- Micturition pressure [2, 7]: h: 60 ± 5 cm H2O
- Micturition volume [2, 7]: h: 0.97 ± 0.13 ml
- Residual volume [2, 7]: h: 0.40 ± 0.04 ml
- Threshold pressure [2, 7]: h: 16.01 ± 1.63 cm H2O
- Basal pressure [2, 8]: v: 4.50 ± 0.29 cm H2O
- Bladder capacity [2, 8]: v: 0.99 ± 0.08 ml
- Inter-contraction interval [2, 8]: v: 6.06 ± 0.49 min
- Micturition pressure [2, 8]: v: 71 ± 4 cm H2O
- Micturition volume [2, 8]: v: 0.86 ± 0.07 ml
- Residual volume [2, 8]: v: 0.15 ± 0.01 ml
- Threshold pressure [2, 8]: v: 8.21 ± 0.42 cm H2O
- Basal pressure [2, 9]: Diff.: +13%
- Bladder capacity [2, 9]: Diff.: +18%
- Inter-contraction interval [2, 9]: Diff.: +21%
- Micturition pressure [2, 9]: Diff.: −22%
- Micturition volume [2, 9]: Diff.: +22%
- Residual volume [2, 9]: Diff.: −14%
- Threshold pressure [2, 9]: Diff.: +91%
- Basal pressure [2, 10]: h: 4.70 ± 1.14 cm H2O
- Bladder capacity [2, 10]: h: 1.43 ± 0.11 ml
- Micturition pressure [2, 10]: h: 57 ± 10 cm H2O
- Micturition volume [2, 10]: h: 1.31 ± 0.12 ml
- Residual volume [2, 10]: h: 0.12 ± 0.002 ml
- Threshold pressure [2, 10]: h: 15.0 ± 2.58 cm H2O
- Basal pressure [2, 11]: v: 4.16 ± 0.62 cm H2O
- Bladder capacity [2, 11]: v: 1.21 ± 0.06 ml
- Micturition pressure [2, 11]: v: 73 ± 12 cm H2O
- Micturition volume [2, 11]: v: 1.07 ± 0.06 ml
- Residual volume [2, 11]: v: 0.14 ± 0.03 ml
- Threshold pressure [2, 11]: v: 7.85 ± 1.04 cm H2O
- effect on bladder parameters (in words) ([2]; 5 mg/kg i.v.): has an effect
- Basal pressure [2, 12]: Diff.: +53%
- Bladder capacity [2, 12]: Diff.: −2%
- Inter-contraction interval [2, 12]: Diff.: +7%
- Micturition pressure [2, 12]: Diff.: −15%
- Micturition volume [2, 12]: Diff.: +46%
- Residual volume [2, 12]: Diff.: −95%
- Threshold pressure [2, 12]: Diff.: +140%
- Basal pressure [2, 13]: h: 6.46 ± 1.13 cm H2O
- Bladder capacity [2, 13]: h: 0.90 ± 0.09 ml
- Micturition pressure [2, 13]: h: 51 ± 7 cm H2O
- Micturition volume [2, 13]: h: 1.18 ± 0.12 ml
- Residual volume [2, 13]: h: 0.006 ± 0.003 ml
- Threshold pressure [2, 13]: h: 19.20 ± 3.02 cm H2O
- Basal pressure [2, 14]: v: 4.23 ± 0.35 cm H2O
- Bladder capacity [2, 14]: v: 0.92 ± 0.08 ml
- Micturition pressure [2, 14]: v: 60 ± 4 cm H2O
- Micturition volume [2, 14]: v: 0.81 ± 0.07 ml
- Residual volume [2, 14]: v: 0.11 ± 0.02 ml
- Threshold pressure [2, 14]: v: 8.0 ± 1.10 cm H2O
- bladder capacity (in words) ([2]; rat, in vivo): distinct increase

Compound: CNCC1CCCCC1(O)c1cccc(O)c1 (single isomer, unassigned; (+)) [(+)-M5, (+)-O-desmethyl-N-mono-desmethyltramadol]
- Basal pressure [2, 15]: Diff.: −9%
- Bladder capacity [2, 15]: Diff.: +61%
- Inter-contraction interval [2, 15]: Diff.: +38%
- Micturition pressure [2, 15]: Diff.: −46%
- Micturition volume [2, 15]: Diff.: +36%
- Residual volume [2, 15]: Diff.: +162%
- Threshold pressure [2, 15]: Diff.: +46%
- Basal pressure [2, 16]: h: 4.25 ± 0.33 cm H2O
- Bladder capacity [2, 16]: h: 1.06 ± 0.06 ml
- Inter-contraction interval [2, 16]: h: 5.22 ± 0.27 min
- Micturition pressure [2, 16]: h: 43 ± 6 cm H2O
- Micturition volume [2, 16]: h: 0.72 ± 0.04 ml
- Residual volume [2, 16]: h: 0.34 ± 0.04 ml
- Threshold pressure [2, 16]: h: 10.25 ± 1.01 cm H2O
- Basal pressure [2, 17]: v: 4.68 ± 0.74 cm H2O
- Bladder capacity [2, 17]: v: 0.66 ± 0.05 ml
- Inter-contraction interval [2, 17]: v: 3.78 ± 0.35 min
- Micturition pressure [2, 17]: v: 80 ± 9 cm H2O
- Micturition volume [2, 17]: v: 0.53 ± 0.06 ml
- Residual volume [2, 17]: v: 0.13 ± 0.01 ml
- Threshold pressure [2, 17]: v: 7.0 ± 0.93 cm H2O
- threshold pressure (in words) ([2]; 10 mg/kg i.v.): distinct rise
- interval between micturition (in words) ([2]; 10.0 mg/kg i.v.): not shortened
- Basal pressure [2, 18]: Diff.: +4%
- Bladder capacity [2, 18]: Diff.: −18%
- Inter-contraction interval [2, 18]: Diff.: −12%
- Micturition pressure [2, 18]: Diff.: −23%
- Micturition volume [2, 18]: Diff.: +9%
- Residual volume [2, 18]: Diff.: −88%
- Threshold pressure [2, 18]: Diff.: +69%
- Basal pressure [2, 19]: h: 3.95 ± 0.35 cm H2O
- Bladder capacity [2, 19]: h: 0.72 ± 0.08 ml
- Inter-contraction interval [2, 19]: h: 4.30 ± 0.47 min
- Micturition pressure [2, 19]: h: 41 ± 3 cm H2O
- Micturition volume [2, 19]: h: 0.86 ± 0.10 ml
- Residual volume [2, 19]: h: 0.01 ± 0.002 ml
- Threshold pressure [2, 19]: h: 12.08 ± 1.47 cm H2O
- Basal pressure [2, 20]: v: 3.78 ± 0.26 cm H2O
- Bladder capacity [2, 20]: v: 0.88 ± 0.09 ml
- Inter-contraction interval [2, 20]: v: 4.92 ± 0.53 min
- Micturition pressure [2, 20]: v: 53 ± 4 cm H2O
- Micturition volume [2, 20]: v: 0.79 ± 0.09 ml
- Residual volume [2, 20]: v: 0.08 ± 0.01 ml
- Threshold pressure [2, 20]: v: 7.13 ± 0.47 cm H2O
- bladder capacity (in words) ([2]; intrathecally): distinct increases
- interval between micturition (in words) ([2]; intrathecally): distinct increases
- threshold pressure (in words) ([2]; intrathecally): increase
